Data from patent publication US11925672B2, “Peptide having antioxidant activity and composition containing same” (SEMPIO FOODS COMPANY, priority 2018, dated 2024).
Entries after “also recorded” stand apart in the source; their conditions may differ. Numbered stars: 1 amine (or outer) side, 2 acyl side, 3 side chain; on linkers, the order of the positions; unused ones are H or OH. Square brackets hold non-standard residues; d marks the D form. Ends that are not written are not given here. γGlu = O=C(O)[C@H](CCC(=O)[*:2])N[*:1]; Orn = NCCC[C@H](N)C(=O)O; Abu = CC[C@H](N)C(=O)O

Experiments:
Nrf2 mRNA = Nrf2 mRNA expression level by real-time PCR in Tert-BHP-treated HEK293 cells; assay type: cell-based; settings: Tert-BHP 300 μM, peptide 500 μM, 18 hours; for effect on expression of Nrf2 mRNA: FIGS. 5A to 5C; for Nrf2 mRNA expression compared to positive control GSH: vs GSH
Description: In the present invention, the antioxidant activity was compared between the 100 types of peptides, and the change in Nrf2 mRNA expression was measured through PCR in order to select the final peptide.
(§1) An HEK293 cell (kidney cell) line was seeded at a density of 6.6×10^5/well in DMEM (Dulbecco's Modified Eagle's Medium) medium on a 6-well plate and cultured at 37° C. under 5% CO2 for 24 hours. The next day, the medium was exchanged with serum and amino-acid-free media, and then the cells were further cultured for 20 hours or longer. The cells were treated with Tert-BHP (300 μM) and 500 μM 100 types of peptides, and then cultured for 18 hours.
RNA was extracted from the cells treated with 100 types of peptides in (1) using TRIzol (Thermo Fisher Scientific). A GoScript™ Reverse Transcription System (Promega, Wisconsin, USA) was used to synthesize cDNA from the RNA. The cDNA was synthesized by performing annealing using 1 μg of RNA, 0.5 μg of an oligo dt primer, 0.5 μg of a random primer and RT-PCR pre-mixture at 25° C. for 5 minutes, extension at 42° C. for 60 minutes, and inactivation at 70° C. for 15 minutes.
(§2) PCR was performed using Maxime™ PCR PreMix (i-StarTaq) (Intron Biotechnology, Korea). Real-time PCR was performed using SsoAdvanced™ Universal SYBR® Green Supermix (Bio-Rad, USA). 100 ng of cDNA, 2 μM (pmol/μl) primers, 10 μl of 2X SsoAdvanced™ Universal SYBR® Green Supermix and DW were added to the PCR plate well. Then, the temperature was cyclically adjusted to 95° C. for 3 minutes, 95° C. for 10 seconds and 58° C. for 40 seconds for a total of 40 cycles. A PCR reaction was performed using a CFX96 Touch™ Real-Time PCR Detection System (Bio-Rad, California, USA), and fluorescence intensity was measured at the end of each cycle.

SOD2 mRNA = SOD2 mRNA expression level by real-time PCR in Tert-BHP-treated HEK293 cells; assay type: cell-based; settings: Tert-BHP 300 μM, peptide 500 μM, 18 hours; for effect on SOD2 mRNA expression: FIG. 6; for SOD2 mRNA expression compared to positive control GSH: vs GSH
Description: The expression of SOD2 mRNA as another antioxidant factor was determined. The cell line culture, RNA extraction, cDNA synthesis and PCR experiments were performed in the same manner as in Experimental Example 5 above. A detailed description thereof is given below.
as §1, with “and” for “under”
RNA was extracted from the cells treated with 100 types of peptides in (1) using TRIzol (Thermo Fisher Scientific). A GoScript™ Reverse Transcription System (Promega, Wisconsin, USA) was used to synthesize cDNA from the RNA. The cDNA was synthesized by performing annealing with 1 μg RNA, 0.5 μg of an oligo dt primer, 0.5 μg of a random primer, and RT-PCR pre-mixture at 25° C. for 5 minutes, extension at 42° C. for 60 minutes, and inactivation at 70° C. for 15 minutes.
as §2, with “using the” for “using a”

| Substance | effect on expression of Nrf2 mRNA (Nrf2 mRNA) | Nrf2 mRNA expression compared to positive control GSH (Nrf2 mRNA) | effect on SOD2 mRNA expression (SOD2 mRNA) | SOD2 mRNA expression compared to positive control GSH (SOD2 mRNA) |
| --- | --- | --- | --- | --- |
| γ-GLU-ORN | improve the expression of Nrf2 mRNA | comparable or superior | – | – |
| γ-GLU-VAL-ASP ([γGlu]-Val-Asp; also: gamma-glutamyl isopeptide bond (Glu side chain to Val)) | improve the expression of Nrf2 mRNA | remarkably excellent effect; also recorded: statistically significant activity | increased SOD2 mRNA expression | remarkably excellent; also recorded: statistically significant activity |
| γ-GLU-VAL-ARG ([γGlu]-Val-Arg; also: gamma-glutamyl isopeptide bond (Glu side chain to Val)) | improve the expression of Nrf2 mRNA | remarkably excellent effect; also recorded: statistically significant activity | increased SOD2 mRNA expression | remarkably excellent; also recorded: statistically significant activity |
| γ-GLU-VAL-GLU ([γGlu]-Val-Glu; also: gamma-glutamyl isopeptide bond (Glu side chain to Val)) | improve the expression of Nrf2 mRNA | remarkably excellent effect; also recorded: statistically significant activity | increased SOD2 mRNA expression | remarkably excellent; also recorded: statistically significant activity |
| γ-GLU-VAL-VAL ([γGlu]-Val-Val; also: gamma-glutamyl isopeptide bond (Glu side chain to Val)) | improve the expression of Nrf2 mRNA | – | increased SOD2 mRNA expression | – |
| γ-GLU-VAL-HIS ([γGlu]-Val-His; also: gamma-glutamyl isopeptide bond (Glu side chain to Val)) | improve the expression of Nrf2 mRNA | – | increased SOD2 mRNA expression | remarkably excellent |
| γ-GLU-GLU-GLU ([γGlu]-Glu-Glu) | improve the expression of Nrf2 mRNA | – | – | – |
| γ-GLU-VAL-PHE ([γGlu]-Val-Phe; also: gamma-glutamyl isopeptide bond (Glu side chain to Val)) | improve the expression of Nrf2 mRNA | remarkably excellent effect; also recorded: statistically significant activity | increased SOD2 mRNA expression | remarkably excellent; also recorded: statistically significant activity |
| γ-GLU-VAL-GLY ([γGlu]-Val-Gly; also: gamma-glutamyl isopeptide bond (Glu side chain to Val)) | improve the expression of Nrf2 mRNA | – | increased SOD2 mRNA expression | remarkably excellent |
| γ-GLU-CYS(S-Me)-GLY ([γGlu]-Cys(Me)-Gly) | improve the expression of Nrf2 mRNA | – | – | – |
| γ-GLU-VAL-PRO ([γGlu]-Val-Pro; also: gamma-glutamyl isopeptide bond (Glu side chain to Val)) | improve the expression of Nrf2 mRNA | – | increased SOD2 mRNA expression | – |
| β-GLU-HIS | no effect | – | – | – |
| γ-GLU-VAL-LYS ([γGlu]-Val-Lys; also: gamma-glutamyl isopeptide bond (Glu side chain to Val)) | improve the expression of Nrf2 mRNA | – | increased SOD2 mRNA expression | – |
| γ-GLU-GLN-GLN ([γGlu]-Gln-Gln) | improve the expression of Nrf2 mRNA | – | increased SOD2 mRNA expression | – |
| γ-GLU-LEU-GLY ([γGlu]-Leu-Gly) | improve the expression of Nrf2 mRNA | – | – | – |
| γ-GLU-VAL-MET ([γGlu]-Val-Met; also: gamma-glutamyl isopeptide bond (Glu side chain to Val)) | improve the expression of Nrf2 mRNA | remarkably excellent effect; also recorded: statistically significant activity | increased SOD2 mRNA expression | remarkably excellent; also recorded: statistically significant activity |
| γ-GLU-ALA-GLY (Glu-Ala-Gly; not fully specified (residue 1); printed as γ-GLU-ALA-GLY) | improve the expression of Nrf2 mRNA | – | – | – |
| γ-GLU-VAL-ASN ([γGlu]-Val-Asn; also: gamma-glutamyl isopeptide bond (Glu side chain to Val)) | improve the expression of Nrf2 mRNA | remarkably excellent effect; also recorded: statistically significant activity | increased SOD2 mRNA expression | remarkably excellent; also recorded: statistically significant activity |
| γ-GLU-VAL-ALA ([γGlu]-Val-Ala; also: gamma-glutamyl isopeptide bond (Glu side chain to Val)) | improve the expression of Nrf2 mRNA | – | increased SOD2 mRNA expression | – |
| γ-GLU-ILE-GLY ([γGlu]-Ile-Gly) | improve the expression of Nrf2 mRNA | remarkably excellent effect; also recorded: statistically significant activity | increased SOD2 mRNA expression | remarkably excellent; also recorded: statistically significant activity |
| γ-GLU-Abu-GLY ([γGlu]-[Abu]-Gly; also: γ-peptide bond from Glu side chain carboxyl to Abu) | improve the expression of Nrf2 mRNA | – | increased SOD2 mRNA expression | remarkably excellent |
| γ-GLU-VAL-ORN ([γGlu]-Val-[Orn]; also: γ-peptide bond from Glu side chain carboxyl to Val) | improve the expression of Nrf2 mRNA | – | increased SOD2 mRNA expression | – |
| γ-GLU-SER-GLY ([γGlu]-Ser-Gly; also: gamma-glutamyl isopeptide bond (Glu side chain to Ser)) | improve the expression of Nrf2 mRNA | statistically significant activity | – | remarkably excellent; also recorded: statistically significant activity |
| γ-GLU-PRO-GLY ([γGlu]-Pro-Gly) | improve the expression of Nrf2 mRNA | remarkably excellent effect; also recorded: statistically significant activity | increased SOD2 mRNA expression | remarkably excellent; also recorded: statistically significant activity |
